Reference: the NIST ThermoML archive (doi:10.1021/je060271a)

Conditions: Liquid, Vibrating tube method

CCCCC(=O)OCC(COC(=O)CCCC)(COC(=O)CCCC)COC(=O)CCCC [pentaerythritol tetrapentanoate]
Conditions | mass density [kg/m3]
303.16 K, 794.63 kPa | 1011.4
303.16 K, 4758.7 kPa | 1013.9
303.16 K, 10737 kPa | 1017.8
303.16 K, 10776 kPa | 1017.7
303.16 K, 19666 kPa | 1023
303.16 K, 25722 kPa | 1026.7
303.16 K, 33332 kPa | 1030.7
303.16 K, 33572 kPa | 1030.8
303.16 K, 34311 kPa | 1031.2
303.16 K, 34317 kPa | 1031.3
303.16 K, 34322 kPa | 1031.4
303.16 K, 34329 kPa | 1031.2
303.16 K, 34349 kPa | 1031.2
323.14 K, 736.7 kPa | 995.1
323.14 K, 775.7 kPa | 995.1
323.14 K, 800.8 kPa | 995.2
323.14 K, 1023.7 kPa | 995.3
323.14 K, 1214.2 kPa | 995.6
323.14 K, 1242.9 kPa | 995.4
323.14 K, 1267.4 kPa | 995.5
323.14 K, 1292.7 kPa | 995.4
323.14 K, 1352.1 kPa | 995.6
323.14 K, 1554.7 kPa | 995.8
323.14 K, 1591.2 kPa | 995.7
323.14 K, 1625.4 kPa | 995.6
323.14 K, 1652.3 kPa | 995.8
323.14 K, 1677.1 kPa | 995.8
323.14 K, 1847.7 kPa | 995.8
323.14 K, 1899.2 kPa | 995.8
323.14 K, 1926.8 kPa | 996
323.14 K, 1959.1 kPa | 996
323.14 K, 1986.5 kPa | 996.1
323.14 K, 2181.7 kPa | 996.1
323.14 K, 2215.2 kPa | 996.1
323.14 K, 2249 kPa | 996.2
323.14 K, 2284.1 kPa | 996.3
323.14 K, 2935.8 kPa | 996.6
323.14 K, 2965.1 kPa | 996.7
323.14 K, 3225.9 kPa | 996.8
323.14 K, 3237 kPa | 996.9
323.14 K, 3248.4 kPa | 996.9
323.14 K, 3385 kPa | 996.9
323.14 K, 7926.5 kPa | 1000.3
323.14 K, 7971.9 kPa | 1000.2
323.14 K, 9459.5 kPa | 1001.1
323.14 K, 9766.4 kPa | 1001.5
323.14 K, 9799.5 kPa | 1001.4
323.14 K, 9832.9 kPa | 1001.5
323.14 K, 9906.9 kPa | 1001.6
323.14 K, 9941.6 kPa | 1001.6
323.14 K, 10052 kPa | 1001.6
323.14 K, 10094 kPa | 1001.7
323.14 K, 10244 kPa | 1001.9
323.14 K, 11507 kPa | 1002.6
323.14 K, 12708 kPa | 1003.4
323.14 K, 13903 kPa | 1004.3
323.14 K, 14014 kPa | 1004.2
323.14 K, 14206 kPa | 1004.4
323.14 K, 14241 kPa | 1004.3
323.14 K, 19359 kPa | 1007.7
323.14 K, 19418 kPa | 1007.7
323.14 K, 19454 kPa | 1007.7
323.14 K, 19485 kPa | 1007.9
323.14 K, 28758 kPa | 1013.5
323.14 K, 28848 kPa | 1013.6
323.14 K, 28889 kPa | 1013.5
323.14 K, 28930 kPa | 1013.6
323.14 K, 29171 kPa | 1013.8
323.14 K, 29205 kPa | 1013.9
323.14 K, 29234 kPa | 1013.8
323.14 K, 29268 kPa | 1014
323.14 K, 29296 kPa | 1013.9
323.15 K, 106.09 kPa | 994.8
323.15 K, 106.1 kPa | 994.7
323.15 K, 106.26 kPa | 994.6
323.15 K, 106.44 kPa | 994.7
323.15 K, 107.13 kPa | 994.6
323.15 K, 108 kPa | 994.6
323.15 K, 108.53 kPa | 994.7
323.15 K, 110.43 kPa | 994.6
323.15 K, 112.87 kPa | 994.7
323.15 K, 115.82 kPa | 994.7
323.15 K, 118.77 kPa | 994.7
323.15 K, 121.05 kPa | 994.6
323.15 K, 124.52 kPa | 994.7
323.15 K, 129.04 kPa | 994.6
323.15 K, 133.91 kPa | 994.8
323.15 K, 140.34 kPa | 994.7
323.15 K, 147.99 kPa | 994.8
323.15 K, 159.99 kPa | 994.7
323.15 K, 173.53 kPa | 994.6
323.15 K, 190.4 kPa | 994.6
323.15 K, 218.21 kPa | 994.8
323.15 K, 249.16 kPa | 994.8
323.15 K, 296.4 kPa | 994.7
323.15 K, 338.3 kPa | 994.8
323.15 K, 358.5 kPa | 994.8
323.15 K, 373.8 kPa | 994.9
323.15 K, 387.5 kPa | 994.7
323.15 K, 401.6 kPa | 994.8
323.15 K, 416.9 kPa | 994.9
323.15 K, 429 kPa | 995
323.15 K, 441.9 kPa | 995
323.15 K, 455.3 kPa | 995
323.15 K, 472.5 kPa | 994.9
323.15 K, 488.1 kPa | 994.9
323.15 K, 504.6 kPa | 995
323.15 K, 525.8 kPa | 995
323.15 K, 543.7 kPa | 995
323.15 K, 564 kPa | 995
323.15 K, 582.3 kPa | 995
323.15 K, 601.7 kPa | 995
323.15 K, 627.6 kPa | 995.1
323.15 K, 645.4 kPa | 995.1
323.15 K, 665.2 kPa | 995.1
323.15 K, 681.1 kPa | 995.1
323.15 K, 697.1 kPa | 995
323.15 K, 718 kPa | 995.2
323.15 K, 755.5 kPa | 995
323.15 K, 823.3 kPa | 995.1
323.15 K, 846.7 kPa | 995.1
323.15 K, 871.2 kPa | 995.4
323.15 K, 903.5 kPa | 995.2
323.15 K, 930.1 kPa | 995.3
323.15 K, 958.1 kPa | 995.3
323.15 K, 984.8 kPa | 995.4
323.15 K, 1006.3 kPa | 995.3
323.15 K, 1041.8 kPa | 995.4
323.15 K, 1060 kPa | 995.3
323.15 K, 1082.2 kPa | 995.4
323.15 K, 1101.7 kPa | 995.3
323.15 K, 1121.7 kPa | 995.4
323.15 K, 1146.9 kPa | 995.5
323.15 K, 1168.2 kPa | 995.4
323.15 K, 1191 kPa | 995.4
323.15 K, 1319.1 kPa | 995.2
323.15 K, 1380.2 kPa | 995.5
323.15 K, 1416.2 kPa | 995.6
323.15 K, 1447.4 kPa | 995.6
323.15 K, 1479.7 kPa | 995.8
323.15 K, 1512.7 kPa | 995.6
323.15 K, 1698.1 kPa | 995.8
323.15 K, 1720.3 kPa | 995.8
323.15 K, 1747.2 kPa | 995.8
323.15 K, 1770.3 kPa | 995.8
323.15 K, 1793.7 kPa | 995.8
323.15 K, 1822.9 kPa | 995.9
323.15 K, 1873.2 kPa | 995.9
323.15 K, 2015.2 kPa | 996.1
323.15 K, 2044.7 kPa | 996.1
323.15 K, 2080.6 kPa | 996
323.15 K, 2111.5 kPa | 996.1
323.15 K, 2143.5 kPa | 996.3
323.15 K, 2327.6 kPa | 996.2
323.15 K, 2364.9 kPa | 996.1
323.15 K, 2402.4 kPa | 996.3
323.15 K, 2448.3 kPa | 996.3
323.15 K, 2487.7 kPa | 996.4
323.15 K, 2528.3 kPa | 996.4
323.15 K, 2578.1 kPa | 996.3
